Patent publication US5336763A, “Trisazo dye and dye composition containing the same” (Orient Chemical Industries, Ltd., priority 1992, dated 1994)
Like-named read-outs stand apart in the source and are kept apart here.

Legend:
[1] = background; cited from earlier work
strains TA98 = format: cell-based; conditions: for AMES evaluation: strains TA98
Method: Regarding various specimen solutions respectively containing trisazo dyes obtained in Examples 1 to 11 to the present invention and dyes of Comparative Examples 1 to 3, the number of mutant colonies was determined using strains TA98. 2. When the ratio is less than 2, it is "negative" and, when the ratio is more than 2, it is "positive", and the results are shown in Table. 1.

Compound | Ames test [1] | Ames test: ratio of number of colonies to control (strains TA98; 20 μg/plate, with S-9) | Ames test: ratio of number of colonies to control (strains TA98; 20 μg/plate, without S-9) | Ames test: ratio of number of colonies to control (strains TA98; 78 μg/plate, with S-9) | Ames test: ratio of number of colonies to control (strains TA98; 78 μg/plate, without S-9) | Ames test: ratio of number of colonies to control (strains TA98; 313 μg/plate, with S-9) | Ames test: ratio of number of colonies to control (strains TA98; 313 μg/plate, without S-9) | Ames test: ratio of number of colonies to control (strains TA98; 1250 μg/plate, with S-9) | Ames test: ratio of number of colonies to control (strains TA98; 1250 μg/plate, without S-9) | Ames test: ratio of number of colonies to control (strains TA98; 5000 μg/plate, with S-9) | Ames test: ratio of number of colonies to control (strains TA98; 5000 μg/plate, without S-9) | AMES evaluation (strains TA98)
Nc1ccc(N=Nc2ccc(N=Nc3c(S(=O)(=O)[O-])cc4cc(S(=O)(=O)[O-])c(N=Nc5ccc(N=Nc6ccc(N)cc6N)cc5)c(O)c4c3N)cc2)c(N)c1.[Na+].[Na+] [C.I. Direct Black 19] | false positive or positive |  |  |  |  |  |  |  |  |  |  | 
C.I. Direct Black 168 | false positive or positive |  |  |  |  |  |  |  |  |  |  | 
Cc1cc(-c2ccc(N=Nc3c(S(=O)(=O)O)cc4cc(S(=O)(=O)O)c(N=Nc5ccc(S(=O)(=O)O)cc5)c(O)c4c3N)c(C)c2)ccc1N=Nc1ccc(O)cc1O [compound 3, reference compound] |  | 1.20 | 0.92 | 2.24 | 1.00 | 4.16 | 2.56 | 1.12 | 3.56 | 0.16 | 0.96 | Positive (when the ratio is more than 2, it is "positive")
Nc1c(N=Nc2ccc(Oc3ccc(Oc4ccc(N=Nc5ccc(O)cc5O)cc4)cc3)cc2)cc(S(=O)(=O)O)c2ccc(N=Nc3ccccc3)c(O)c12 [Ex. 10] |  | 0.91 | 1.03 | 0.92 | 1.01 | 0.85 | 0.84 | 1.09 | 1.02 | 0.90 | 0.97 | Negative (When the ratio is less than 2, it is "negative")
Cc1cc(-c2ccc(N=Nc3c(S(=O)(=O)O)cc4cc(S(=O)(=O)O)c(N=Nc5ccccc5)c(O)c4c3N)c(C)c2)ccc1N=Nc1ccc(N)cc1N [compound 1, reference compound] |  | 1.92 | 0.72 | 2.35 | 0.68 | 2.50 | 0.84 | 1.50 | 0.76 | 0.85 | 0.96 | Positive (when the ratio is more than 2, it is "positive")
Cc1cc(-c2ccc(N=Nc3c(S(=O)(=O)[O-])cc4cc(S(=O)(=O)[O-])c(N=Nc5ccccc5)c(O)c4c3N)c(C)c2)ccc1N=Nc1ccc(N)cc1N.[Na+].[Na+] [C.I. Direct Black 154] | false positive or positive |  |  |  |  |  |  |  |  |  |  | 
